Results reported in paper PMC9234961 (Journal of Medicinal Chemistry, 2022).

Key:
kinases (468) [1] = target: kinases (468) (Homo sapiens, UniProt P54756); details: EPHA5; 1000 nM
kinases (468) [2] = target: kinases (468) (Homo sapiens, UniProt Q13233); details: MAP3K1; 1000 nM
kinases (468) [3] = target: kinases (468) (Homo sapiens, UniProt Q52WX2); details: kinase SBK1 (Entrez SBK1); compound concentration 1000 nM
kinases (468) [4] = target: kinases (468) (Homo sapiens, UniProt Q9P1W9); details: PIM2; 1000 nM
kinases (468) [5] = target: kinases (468) (Homo sapiens, UniProt Q9BRS2); details: kinase RIOK1 (Entrez RIOK1); compound concentration 1000 nM
kinases (468) [6] = target: kinases (468) (Homo sapiens, UniProt Q13976); details: PRKG1; 1000 nM
kinases (468) [7] = target: kinases (468) (Homo sapiens, UniProt Q9NWZ3); details: IRAK4; 1000 nM
kinases (468) [8] = target: kinases (468) (Homo sapiens, UniProt Q9H0K1); details: kinase SIK2 (Entrez SIK2); compound concentration 1000 nM
kinases (468) [9] = target: kinases (468) (Homo sapiens, UniProt Q9Y243); details: AKT3; 1000 nM
kinases (468) [10] = target: kinases (468) (Homo sapiens, UniProt O15264); details: p38-delta (MAPK13); 1000 nM
kinases (468) [11] = target: kinases (468) (Homo sapiens, UniProt P49840); details: GSK3A; 1000 nM
kinases (468) [12] = target: kinases (468) (Homo sapiens, UniProt O15146); details: MUSK; 1000 nM
kinases (468) [13] = target: kinases (468) (Homo sapiens, UniProt P48736); details: PIK3CG; 1000 nM
kinases (468) [14] = target: kinases (468) (Homo sapiens, UniProt P57078); details: kinase RIPK4 (Entrez RIPK4); compound concentration 1000 nM
kinases (468) [15] = target: kinases (468) (Homo sapiens, UniProt Q6XUX3); details: kinase RIPK5 (Entrez DSTYK); compound concentration 1000 nM
kinases (468) [16] = target: kinases (468) (Homo sapiens, UniProt Q13470); details: kinase TNK1 (Entrez TNK1); compound concentration 1000 nM
kinases (468) [17] = target: kinases (468) (Homo sapiens, UniProt Q9UQM7); details: CAMK2A; 1000 nM
kinases (468) [18] = target: kinases (468) (Homo sapiens, UniProt P07949, M918T); details: kinase RET(M918T) (Entrez RET); compound concentration 1000 nM
kinases (468) [19] = target: kinases (468) (Homo sapiens, UniProt Q9UBE8); details: NLK; 1000 nM
kinases (468) [20] = target: kinases (468) (Homo sapiens, UniProt Q9UIK4); details: DAPK2; 1000 nM
kinases (468) [21] = target: kinases (468) (Homo sapiens, UniProt Q5S007, G2019S); details: LRRK2(G2019S); 1000 nM
kinases (468) [22] = target: kinases (468) (Homo sapiens, UniProt P30291); details: kinase WEE1 (Entrez WEE1); compound concentration 1000 nM
kinases (468) [23] = target: kinases (468) (Homo sapiens, UniProt Q9BWU1); details: CDK11 (CDK19); 1000 nM
kinases (468) [24] = target: kinases (468) (Homo sapiens, UniProt P53779); details: JNK3 (MAPK10); 1000 nM
kinases (468) [25] = target: kinases (468) (Homo sapiens, UniProt O43283); details: LZK (MAP3K13); 1000 nM
kinases (468) [26] = target: kinases (468) (Homo sapiens, UniProt Q99759); details: MAP3K3; 1000 nM
kinases (468) [27] = target: kinases (468) (Homo sapiens, UniProt P21709); details: EPHA1; 1000 nM
kinases (468) [28] = target: kinases (468) (Homo sapiens, UniProt P36888, D835Y); details: FLT3(D835Y); 1000 nM
kinases (468) [29] = target: kinases (468) (Homo sapiens, UniProt P54760); details: EPHB4; 1000 nM
kinases (468) [30] = target: kinases (468) (Homo sapiens, UniProt P06241); details: FYN; 1000 nM
kinases (468) [31] = target: kinases (468) (Homo sapiens, UniProt Q16513); details: PKN2; 1000 nM
kinases (468) [32] = target: kinases (468) (Homo sapiens, UniProt P15735); details: PHKG2; 1000 nM
kinases (468) [33] = target: kinases (468) (Homo sapiens, UniProt Q00526); details: CDK3; 1000 nM
kinases (468) [34] = target: kinases (468) (Homo sapiens, UniProt Q13131); details: AMPK-alpha1 (PRKAA1); 1000 nM
kinases (468) [35] = target: kinases (468) (Homo sapiens, UniProt Q9H2K8); details: kinase TAOK3 (Entrez TAOK3); compound concentration 1000 nM

kinases (468) (Homo sapiens, UniProt Q9NWZ3), sequence (Q9NWZ3 whole entry): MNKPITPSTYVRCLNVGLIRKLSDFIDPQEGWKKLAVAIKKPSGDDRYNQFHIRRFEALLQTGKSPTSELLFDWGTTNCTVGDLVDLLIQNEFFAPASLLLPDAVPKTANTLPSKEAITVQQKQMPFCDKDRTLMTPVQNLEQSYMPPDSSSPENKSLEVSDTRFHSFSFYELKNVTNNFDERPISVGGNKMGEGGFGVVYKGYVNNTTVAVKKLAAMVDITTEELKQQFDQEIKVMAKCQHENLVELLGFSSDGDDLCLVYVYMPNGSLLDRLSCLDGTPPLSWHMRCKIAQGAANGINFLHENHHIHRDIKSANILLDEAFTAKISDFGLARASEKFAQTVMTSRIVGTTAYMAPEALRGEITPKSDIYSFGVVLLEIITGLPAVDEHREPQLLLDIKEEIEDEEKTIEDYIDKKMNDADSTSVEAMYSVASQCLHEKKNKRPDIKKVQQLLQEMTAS
kinases (468) (Homo sapiens, UniProt P54760), sequence (P54760 16-987): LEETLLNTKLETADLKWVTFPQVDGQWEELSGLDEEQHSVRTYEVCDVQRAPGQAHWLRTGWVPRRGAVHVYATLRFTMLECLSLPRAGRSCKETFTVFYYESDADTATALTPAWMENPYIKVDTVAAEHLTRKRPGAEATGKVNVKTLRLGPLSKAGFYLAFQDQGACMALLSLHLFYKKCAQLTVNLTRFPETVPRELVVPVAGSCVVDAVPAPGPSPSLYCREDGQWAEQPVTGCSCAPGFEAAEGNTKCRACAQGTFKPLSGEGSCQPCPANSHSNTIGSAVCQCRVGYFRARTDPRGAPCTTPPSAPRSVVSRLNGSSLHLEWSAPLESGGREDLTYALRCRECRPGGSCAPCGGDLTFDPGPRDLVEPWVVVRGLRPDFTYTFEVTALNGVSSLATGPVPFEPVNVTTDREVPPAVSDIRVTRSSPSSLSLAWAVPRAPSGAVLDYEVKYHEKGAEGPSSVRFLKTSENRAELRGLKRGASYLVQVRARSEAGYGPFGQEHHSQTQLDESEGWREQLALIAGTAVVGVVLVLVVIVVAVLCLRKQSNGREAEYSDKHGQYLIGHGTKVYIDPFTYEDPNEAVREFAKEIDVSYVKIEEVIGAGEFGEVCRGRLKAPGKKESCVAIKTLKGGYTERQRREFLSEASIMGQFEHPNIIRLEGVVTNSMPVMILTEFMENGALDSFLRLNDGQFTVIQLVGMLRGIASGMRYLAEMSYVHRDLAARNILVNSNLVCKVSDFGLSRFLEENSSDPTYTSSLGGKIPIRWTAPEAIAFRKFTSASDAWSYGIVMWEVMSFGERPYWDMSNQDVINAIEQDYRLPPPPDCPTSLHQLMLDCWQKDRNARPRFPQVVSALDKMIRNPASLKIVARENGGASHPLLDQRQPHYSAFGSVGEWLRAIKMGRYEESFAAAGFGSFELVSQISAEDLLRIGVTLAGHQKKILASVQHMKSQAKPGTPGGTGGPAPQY
kinases (468) (Homo sapiens, UniProt Q13470), sequence (Q13470 whole entry): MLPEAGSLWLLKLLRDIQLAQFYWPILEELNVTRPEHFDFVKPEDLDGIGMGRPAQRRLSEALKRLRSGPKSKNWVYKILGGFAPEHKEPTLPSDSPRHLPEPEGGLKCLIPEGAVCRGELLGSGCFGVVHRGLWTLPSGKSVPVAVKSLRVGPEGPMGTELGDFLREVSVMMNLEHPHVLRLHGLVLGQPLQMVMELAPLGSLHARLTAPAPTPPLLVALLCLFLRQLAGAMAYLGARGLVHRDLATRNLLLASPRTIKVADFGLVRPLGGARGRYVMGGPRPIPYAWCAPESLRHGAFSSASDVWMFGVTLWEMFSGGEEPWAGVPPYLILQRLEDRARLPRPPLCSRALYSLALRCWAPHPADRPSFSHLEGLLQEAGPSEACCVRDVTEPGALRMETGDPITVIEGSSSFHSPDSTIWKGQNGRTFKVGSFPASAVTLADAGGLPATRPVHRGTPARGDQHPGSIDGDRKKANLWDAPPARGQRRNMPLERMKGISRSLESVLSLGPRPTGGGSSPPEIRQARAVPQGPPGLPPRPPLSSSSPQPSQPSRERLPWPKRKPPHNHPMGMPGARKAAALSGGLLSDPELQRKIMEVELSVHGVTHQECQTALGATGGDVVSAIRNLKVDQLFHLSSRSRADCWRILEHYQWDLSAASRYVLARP
kinases (468) (Homo sapiens, UniProt Q5S007, G2019S), sequence (Q5S007 whole entry G2019S): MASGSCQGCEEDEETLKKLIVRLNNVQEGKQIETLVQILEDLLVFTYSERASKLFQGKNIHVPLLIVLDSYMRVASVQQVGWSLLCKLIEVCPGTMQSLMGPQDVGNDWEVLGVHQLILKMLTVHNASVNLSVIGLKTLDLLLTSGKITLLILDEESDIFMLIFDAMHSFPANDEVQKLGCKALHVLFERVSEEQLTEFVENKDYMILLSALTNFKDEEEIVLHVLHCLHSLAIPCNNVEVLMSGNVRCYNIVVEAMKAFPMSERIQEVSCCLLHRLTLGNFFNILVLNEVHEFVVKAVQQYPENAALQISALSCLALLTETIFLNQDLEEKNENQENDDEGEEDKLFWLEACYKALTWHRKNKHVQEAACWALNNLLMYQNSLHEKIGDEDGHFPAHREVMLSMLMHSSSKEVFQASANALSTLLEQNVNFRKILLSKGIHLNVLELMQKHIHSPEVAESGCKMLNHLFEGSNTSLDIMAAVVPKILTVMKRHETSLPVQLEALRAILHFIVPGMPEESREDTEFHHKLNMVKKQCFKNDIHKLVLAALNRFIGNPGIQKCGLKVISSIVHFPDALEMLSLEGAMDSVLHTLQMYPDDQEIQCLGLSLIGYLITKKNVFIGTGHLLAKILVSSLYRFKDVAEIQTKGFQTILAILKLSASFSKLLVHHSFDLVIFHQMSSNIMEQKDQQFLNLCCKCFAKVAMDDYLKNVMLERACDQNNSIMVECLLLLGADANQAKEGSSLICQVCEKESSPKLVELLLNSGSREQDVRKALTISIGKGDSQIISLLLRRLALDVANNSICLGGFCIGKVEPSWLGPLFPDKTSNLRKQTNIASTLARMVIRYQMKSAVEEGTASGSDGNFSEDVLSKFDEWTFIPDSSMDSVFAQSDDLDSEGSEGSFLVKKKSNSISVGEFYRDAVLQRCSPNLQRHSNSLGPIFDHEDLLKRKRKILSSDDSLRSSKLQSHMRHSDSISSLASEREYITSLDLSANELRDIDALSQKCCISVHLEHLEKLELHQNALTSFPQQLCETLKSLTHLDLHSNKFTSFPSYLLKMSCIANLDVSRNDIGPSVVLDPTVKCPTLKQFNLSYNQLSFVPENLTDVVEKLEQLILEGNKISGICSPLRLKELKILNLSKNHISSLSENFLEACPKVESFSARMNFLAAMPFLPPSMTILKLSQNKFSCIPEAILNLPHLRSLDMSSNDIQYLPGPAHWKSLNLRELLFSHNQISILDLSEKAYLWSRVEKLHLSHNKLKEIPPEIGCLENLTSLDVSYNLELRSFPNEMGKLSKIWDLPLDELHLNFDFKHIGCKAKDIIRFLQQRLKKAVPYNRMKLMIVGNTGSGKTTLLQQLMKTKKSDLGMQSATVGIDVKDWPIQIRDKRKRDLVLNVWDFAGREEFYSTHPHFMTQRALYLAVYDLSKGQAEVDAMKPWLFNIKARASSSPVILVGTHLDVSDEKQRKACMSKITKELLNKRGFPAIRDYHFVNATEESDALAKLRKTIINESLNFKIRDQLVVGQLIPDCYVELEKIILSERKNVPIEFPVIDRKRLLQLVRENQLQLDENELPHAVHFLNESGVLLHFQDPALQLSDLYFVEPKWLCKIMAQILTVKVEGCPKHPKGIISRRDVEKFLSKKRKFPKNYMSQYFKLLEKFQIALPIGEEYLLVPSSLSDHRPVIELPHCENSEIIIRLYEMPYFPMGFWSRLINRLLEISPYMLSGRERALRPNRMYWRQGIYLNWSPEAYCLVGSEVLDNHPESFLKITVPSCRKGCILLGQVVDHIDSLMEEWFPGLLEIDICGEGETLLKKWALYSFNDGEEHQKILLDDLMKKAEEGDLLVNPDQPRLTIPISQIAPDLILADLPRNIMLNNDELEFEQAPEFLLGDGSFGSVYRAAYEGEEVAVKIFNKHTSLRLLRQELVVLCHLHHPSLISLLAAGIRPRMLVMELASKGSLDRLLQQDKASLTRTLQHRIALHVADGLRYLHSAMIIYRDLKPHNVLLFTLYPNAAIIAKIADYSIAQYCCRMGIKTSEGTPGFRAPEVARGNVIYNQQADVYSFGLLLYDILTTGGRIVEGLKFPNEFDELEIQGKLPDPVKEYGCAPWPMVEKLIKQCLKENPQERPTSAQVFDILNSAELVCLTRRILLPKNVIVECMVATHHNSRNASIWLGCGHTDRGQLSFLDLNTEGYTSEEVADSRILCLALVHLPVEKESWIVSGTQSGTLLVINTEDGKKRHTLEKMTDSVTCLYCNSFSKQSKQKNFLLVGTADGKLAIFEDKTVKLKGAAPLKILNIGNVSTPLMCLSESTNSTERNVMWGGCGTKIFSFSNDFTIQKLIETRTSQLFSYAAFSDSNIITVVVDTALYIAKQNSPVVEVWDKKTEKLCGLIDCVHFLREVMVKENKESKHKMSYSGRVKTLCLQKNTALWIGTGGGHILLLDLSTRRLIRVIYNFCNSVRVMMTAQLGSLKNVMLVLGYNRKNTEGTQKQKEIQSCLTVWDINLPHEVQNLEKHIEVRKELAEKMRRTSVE
kinases (468) (Homo sapiens, UniProt Q9UIK4), sequence (Q9UIK4 whole entry): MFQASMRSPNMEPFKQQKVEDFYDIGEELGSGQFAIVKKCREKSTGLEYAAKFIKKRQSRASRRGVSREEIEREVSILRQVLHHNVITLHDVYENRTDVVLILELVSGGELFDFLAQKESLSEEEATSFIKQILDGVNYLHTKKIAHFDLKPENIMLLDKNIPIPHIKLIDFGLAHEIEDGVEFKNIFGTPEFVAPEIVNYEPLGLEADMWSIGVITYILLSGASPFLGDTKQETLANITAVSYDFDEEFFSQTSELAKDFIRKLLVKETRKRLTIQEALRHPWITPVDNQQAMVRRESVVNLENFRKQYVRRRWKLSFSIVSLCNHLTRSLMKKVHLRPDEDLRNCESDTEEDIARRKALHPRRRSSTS

C[C@H]1C[C@@H](O)CN(c2ncc(Cl)c(Nc3ccc4c(c3)c3c(c(=O)n4C)OCC(F)(F)[C@H](C4CC4)N3)n2)C1 [CCT373566_9A]
Percent Control (kinases (468) [1]): 98% | Percent Control (kinases (468) [2]): 93% | Percent Control (kinases (468) [3]): 99% | Percent Control (kinases (468) [4]): 98% | Percent Control (kinases (468) [5]): 78% | Percent Control (kinases (468) [6]): 96% | Percent Control (kinases (468) [7]): 80% | Percent Control (kinases (468) [8]): 98% | Percent Control (kinases (468) [9]): 93% | Percent Control (kinases (468) [10]): 94% | Percent Control (kinases (468) [11]): 95% | Percent Control (kinases (468) [12]): 100% | Percent Control (kinases (468) [13]): 98% | Percent Control (kinases (468) [14]): 100% | Percent Control (kinases (468) [15]): 90% | Percent Control (kinases (468) [16]): 92% | Percent Control (kinases (468) [17]): 79% | Percent Control (kinases (468) [18]): 100% | Percent Control (kinases (468) [19]): 100% | Percent Control (kinases (468) [20]): 99% | Percent Control (kinases (468) [21]): 12% | Percent Control (kinases (468) [22]): 89% | Percent Control (kinases (468) [23]): 99% | Percent Control (kinases (468) [24]): 87% | Percent Control (kinases (468) [25]): 81% | Percent Control (kinases (468) [26]): 100% | Percent Control (kinases (468) [27]): 100% | Percent Control (kinases (468) [28]): 90% | Percent Control (kinases (468) [29]): 100% | Percent Control (kinases (468) [30]): 100% | Percent Control (kinases (468) [31]): 100% | Percent Control (kinases (468) [32]): 100% | Percent Control (kinases (468) [33]): 100% | Percent Control (kinases (468) [34]): 100% | Percent Control (kinases (468) [35]): 91%
